Like-named read-outs stand apart in the source and are kept apart here.
Experiments:
[1] = target: T1, C1b domain of human PKCθ (Homo sapiens, UniProt Q04759); assay: biochemical; type: binding; details: 3H-PDBu competition
T1 construct: Genes encoding C1b domains of human PKCα, δ, ε, θ, and PKD1 (PKCμ) were synthesized; made in house; host or cells: E. coli BL21(DE3)
T1 sequence (Q04759 231-281 limits assumed): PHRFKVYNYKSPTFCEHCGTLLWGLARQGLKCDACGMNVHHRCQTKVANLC
Description: (§1) Compounds described in this disclosure were tested for binding affinity to C1b domain of PKC isoforms. Compound binding affinity to C1b domain of PKC isoforms was derived from competitive binding assay using radioactive tracer ^3H-PDBu and recombinant GST-C1b or full-length of human PKC proteins based on modified procedures from Methods in Molecular Biology, vol.
(§2) Genes encoding C1b domains of human PKCα, δ, ε, θ, and PKD1 (PKCμ) were synthesized and inserted into pGEX-2TK or pGEX-4T1 vectors for expression and production of GST-C1b proteins in E. coli BL21(DE3) via IPTG induction. The target proteins were purified by glutathione sepharose 4B and followed by ion exchange chromatography if needed to achieve purity >70%. Aliquots of the purified proteins were stored at −80 degree for binding assay (storage buffer: 20 mM Tris pH 8.0, 200 mM NaCl, 10% glycerol, 1 mM DTT).
(§3) The plate was incubated at 37° C. on a shaker at 300 rpm for 10 minutes and then put on ice for 20 minutes. […] The bottom of the filter plate was sealed and 50 μL of MicroScint-20 (PerkinElmer) cocktail was added to each well. ^3H-PDBu trapped in each well was counted using PerkinElmer MicroBeta2 Reader. Data were analyzed using GraphPad Prism5 with the model “log(inhibitor) vs. response-variable slope” to fit the IC50, and then IC50 was transformed to Ki using Cheng-Prusoff equation: Ki=IC50/(1+added radio ligand/Kd). Kd is the binding affinity of each protein preparation to ^3H-PDBu, determined experimentally.

[2] = tested on: A549 cell line; assay: Proliferation of A549 (CellTiter Glo); type: cell-based; details: Homo sapiens, A549, 96 h, read-out: IC50 μM (A549 Cell Line)
Description: (§4) The diterpenoid compounds were tested in A549, a non-small cell lung cancer cell line harboring a K-Ras activating mutation. Briefly, A549 cells at a density of 1,000 cells/well were seeded in 96-well plates and incubated at 37° C. for 24 hours. A series of different concentrations of compound stocks (500×) were prepared by 3-fold serial dilution in DMSO. These compounds were further diluted in culture media and then added to cells so that the final DMSO concentration was not exceeding 0.25%. After 96 hours of incubation, 50 μL of CellTiter Glo reagent (Promega) was added to each well and luminescence was measured after 10 minutes using EnVision (PerkinElmer). Luminescence from cells treated with DMSO alone was set as Max and % of inhibition was calculated as follows: Inhibition %=(Max-Sample value)/Max×100. Data was analyzed using XL-fit software (ID Business Solutions Ltd.) and IC50, relative IC50, and % of top inhibition was calculated. Some of the compounds in this disclosure were very potent in blocking proliferation of A549 lung cancer cells at low nM range. In addition, potency of inhibiting A549 proliferation correlated well with its binding affinity to PKCs for this series of compounds. In other words, higher affinity binders had stronger inhibitory effects on A549 proliferation. This further support the notion that activation, rather than inhibition, of certain PKC isoforms is required to block proliferation of cancer cells, some of which may harbor K-Ras mutations. This is in sharp contrast to previous literature and common belief that inhibition of PKC is necessary to block cancer cell growth (Kang, 2014, New Journal of Science, 2014:1-36). Data presented here is in agreement with recent findings that many loss-of-function but not gain-of-function mutations of PKC isoforms have been identified in many human cancers (Antal et al., 2015, Cell, 160:489-502).

[3] = tested on: NFκB-driven transcription in HeLa-NFκB luciferase reporter cell line; assay: NFκB luciferase reporter assay; details: Homo sapiens, HeLa, 16 h, read-out: NFκB-luc HeLa cells EC50 (μM)
[4] = tested on: HL-60 (Leukemia); assay: Proliferation of HL-60; type: cell-based; details: for IC50: Homo sapiens, HL-60, read-out: IC50 HL-60 (Leukemia)
Description: as §4
(§5) The compounds in this disclosure were tested for their potency in blocking proliferation of a few other cancer cells lines, including K-Ras mutant pancreatic cell lines Panc2.13 and KP-4, leukemia cell line HL-60, and lymphoma cell lines Namalwa and Mino. Similar procedures as in Example 67 were followed. Initial cell numbers seeded in 96-well plates were different for different cell lines: 3000 cells/well for Panc2.13; 800-1000 cells/well for KP-4; 5000 cells/well for HL-60; 5000-10000 cells/well for Namalwa and Mino. A ratio of (IC50 of K101)/(IC50 of compound) (data in parenthesis in Table 5) was used to normalize the compound potency from different assay batches to a common comparator K101.

[5] = tested on: Mino (Lymphoma); assay: Proliferation of Mino; type: cell-based; details: for IC50: Homo sapiens, MINO, read-out: IC50 Mino (Lymphoma)
Description: as §4, §5

[6] = tested on: Namalwa (Lymphoma); assay: Proliferation of Namalwa; type: cell-based; details: for IC50: read-out: IC50 Namalwa (Lymphoma)
Description: as §4, §5

[7] = target: T2, C1b domain of human PKCδ (Homo sapiens, UniProt Q05655); assay: biochemical; type: binding; details: 3H-PDBu competition
T2 construct: Genes encoding C1b domains of human PKCα, δ, ε, θ, and PKD1 (PKCμ) were synthesized; made in house; host or cells: E. coli BL21(DE3)
Description: as §1, §2, §3

[8] = target: T3, C1b domain of human PKCε (Homo sapiens, UniProt Q02156); assay: biochemical; type: binding; details: 3H-PDBu competition
T3 construct: Genes encoding C1b domains of human PKCα, δ, ε, θ, and PKD1 (PKCμ) were synthesized; made in house; host or cells: E. coli BL21(DE3)
Description: as §1, §2, §3

[9] = tested on: KP-4 (Pancreatic); assay: Proliferation of KP-4; type: cell-based; details: read-out: IC50 KP-4 (Pancreatic)
Description: as §4, §5

[10] = tested on: Panc2.13 (Pancreatic); assay: Proliferation of Panc2.13; type: cell-based
Description: as §4, §5

T2 sequence (Q05655 230-280 limits assumed): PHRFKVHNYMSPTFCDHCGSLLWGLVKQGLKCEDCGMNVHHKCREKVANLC
T3 sequence (Q02156 242-292 limits assumed): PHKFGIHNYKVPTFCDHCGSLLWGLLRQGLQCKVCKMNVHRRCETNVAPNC

| Structure (SMILES) | Ki [1] | IC50 [2] | EC50 [3] | ratio (IC50 of K101)/(IC50 of compound) HL-60 [4] | IC50 [4] | ratio (IC50 of K101)/(IC50 of compound) Mino [5] | IC50 [5] | ratio (IC50 of K101)/(IC50 of compound) Namalwa [6] | IC50 [6] | Ki [7] | Ki [8] | IC50 [9] | IC50 ([6]; 96 h) | ratio (IC50 of K101)/(IC50 of compound) Panc2.13 [10] | IC50 ([10]; read-out: IC50 Panc2.13 (Pancreatic)) |
| --- | --- | --- | --- | --- | --- | --- | --- | --- | --- | --- | --- | --- | --- | --- | --- |
| CC1=C[C@H]2[C@@]3(O)[C@H](C)C[C@]4(OC(=O)CCC5CCCC5)[C@H]([C@@H]3C=C(CO)C[C@]2(O)C1=O)C4(C)C | 10 to 30 nM | 0.03 to 0.06 µM | 0.06 to 0.1 µM | 9.23 | 30 to 60 nM | 11 | 1 to 10 nM | 1.73 | 30 to 60 nM | – | – | – | – | – | – |
| CC1=C[C@H]2[C@@]3(O)[C@H](C)C[C@]4(OC(=O)C5CC6(C5)CN(C(=O)OC(C)(C)C)C6)[C@H]([C@@H]3C=C(CO)C[C@]2(O)C1=O)C4(C)C | 10 to 30 nM | 0.1 to 0.2 µM | – | – | – | – | – | – | – | 10 to 30 nM | – | – | – | – | – |
| CC1=C[C@H]2[C@@]3(O)[C@H](C)C[C@]4(OC(=O)CC5CC6(C5)CN(C(=O)OC(C)(C)C)C6)[C@H]([C@@H]3C=C(CO)C[C@]2(O)C1=O)C4(C)C | 10 to 30 nM | 0.03 to 0.06 µM | – | – | – | – | – | – | – | – | 10 to 30 nM | – | – | – | – |
| CC1=C[C@H]2[C@@]3(O)[C@H](C)C[C@]4(OC(=O)/C=C/c5ccc(C(F)(F)F)cc5)[C@H]([C@@H]3C=C(CO)C[C@]2(O)C1=O)C4(C)C | 10 to 30 nM | 0.06 to 0.1 µM | – | – | – | – | – | – | – | 10 to 30 nM | 10 to 30 nM | – | – | – | – |
| CC1=C[C@H]2[C@@]3(O)[C@H](C)C[C@]4(OC(=O)[C@@H](N)CCc5ccccc5)[C@H]([C@@H]3C=C(CO)C[C@]2(O)C1=O)C4(C)C | 10 to 30 nM | 0.1 to 0.2 µM | 0.1 to 0.2 µM | 3.21 | 100 to 200 nM | 3.18 | 10 to 30 nM | 0.93 | – | – | – | 100 to 200 nM | 100 to 600 nM | 4.28 | 200 to 600 nM |
